Tests used:
hα2A receptor = target: T1, hα2A receptor (Homo sapiens, UniProt P08913); experiment: Radioligand binding experiment for α2A-adrenoceptor ([3H]raulwolscine, CHO cell membranes); settings: [3H]raulwolscine binding; for IC50: read-out: h-α2A pIC50 (converted)
T1 construct: expressed in transfected cells; host or cells: CHO cells, stably transfected; membrane preparation
T1 sequence (P08913 1-465): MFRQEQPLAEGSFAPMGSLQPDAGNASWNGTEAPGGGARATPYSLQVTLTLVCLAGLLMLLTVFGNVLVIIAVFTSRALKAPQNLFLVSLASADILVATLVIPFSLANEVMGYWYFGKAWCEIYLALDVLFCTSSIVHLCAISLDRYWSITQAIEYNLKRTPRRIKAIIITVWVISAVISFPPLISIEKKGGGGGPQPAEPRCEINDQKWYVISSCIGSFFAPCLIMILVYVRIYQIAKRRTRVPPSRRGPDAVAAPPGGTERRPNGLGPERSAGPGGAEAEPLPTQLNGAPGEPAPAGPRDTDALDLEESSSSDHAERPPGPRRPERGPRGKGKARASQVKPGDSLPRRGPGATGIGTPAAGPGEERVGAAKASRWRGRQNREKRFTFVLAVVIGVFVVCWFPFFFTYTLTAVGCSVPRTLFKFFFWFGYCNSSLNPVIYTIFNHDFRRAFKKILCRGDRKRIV
Procedure: (§1) The interaction of a compound of Formula (I) with α2-adrenoceptor receptors was assessed in in vitro radioligand binding experiments. In general, a low concentration of a radioligand with a high binding affinity for a particular receptor or transporter is incubated with a sample of a tissue preparation enriched in a particular receptor or transporter or with a preparation of cells expressing cloned human receptors in a buffered medium. During the incubation, the radioligand binds to the receptor or transporter. When equilibrium of binding is reached, the receptor bound radioactivity is separated from the non-bound radioactivity, and the receptor- or transporter-bound activity is counted. The interaction of the test compounds with the receptor is assessed in competition binding experiments. Various concentrations of the test compound are added to the incubation mixture containing the receptor- or transporter preparation and the radioligand. The test compound in proportion to its binding affinity and its concentration inhibits binding of the radioligand. The radioligand used for hα2A and hα2C receptor binding was [^3H]-raulwolscine.
(§2) CHO cells, stabile transfected with human adrenergic-α2A and α2C receptor cDNA, were cultured in Dulbecco's Modified Eagle's Medium (DMEM)/Nutrient mixture Ham's F12 (ratio 1:1)(Gibco, Gent-Belgium) supplemented with 10% heat inactivated fetal calf serum (Life Technologies, Merelbeke-Belgium) and antibiotics (100 IU/ml penicillin G, 100 μg/ml streptomycin sulphate, 110 μg/ml pyruvic acid and 100 μg/ml L-glutamine). One day before collection, cells were induced with 5 mM sodiumbutyrate. Upon 80-90% of confluence, cells were scraped in phosphate buffered saline without Ca^2+ and Mg^2+ and collected by centrifugation at 1500×g for 10 minutes. The cells were homogenised in Tris-HCl 50 mM using an Ultraturrax homogenizer and centrifuged for 10 minutes at 23,500×g. The pellet was washed once by resuspension and rehomogenization and the final pellet was resuspended in Tris-HCl, divided in 1 ml aliquots and stored at −70° C.
(§3) Membranes were thawed and re-homogenized in incubation buffer (glycylglycine 25 mM, pH 8.0). […] Filters were rinsed extensively with ice-cold rinsing buffer (Tris-HCl 50 mM pH 7.4). Filter-bound radioactivity was determined by scintillation counting in a Topcount (Packard, Meriden, Conn.) and results were expressed as counts per minute (cpm). Non-specific binding was determined in the presence of 1 μM oxymetazoline for the hα2A receptor and 1 μM spiroxatrine for hα2C receptor.
(§4) Data from assays in the presence of compound were calculated as a percentage of total binding measured in the absence of test compound. Inhibition curves, plotting percent of total binding versus the log value of the concentration of the test compound, were automatically generated, and sigmoidal inhibition curves were fitted using non-linear regression. The pIC50 values of test compounds were derived from individual curves.

hα2C receptor = target: T2, hα2C receptor (Homo sapiens, UniProt P18825); experiment: Radioligand binding experiment for α2C-adrenoceptor ([3H]raulwolscine, CHO cell membranes); settings: [3H]raulwolscine binding; for IC50: read-out: h-α2C pIC50 (converted)
T2 construct: expressed in transfected cells; host or cells: CHO cells, stably transfected; membrane preparation
T2 sequence (P18825 1-462): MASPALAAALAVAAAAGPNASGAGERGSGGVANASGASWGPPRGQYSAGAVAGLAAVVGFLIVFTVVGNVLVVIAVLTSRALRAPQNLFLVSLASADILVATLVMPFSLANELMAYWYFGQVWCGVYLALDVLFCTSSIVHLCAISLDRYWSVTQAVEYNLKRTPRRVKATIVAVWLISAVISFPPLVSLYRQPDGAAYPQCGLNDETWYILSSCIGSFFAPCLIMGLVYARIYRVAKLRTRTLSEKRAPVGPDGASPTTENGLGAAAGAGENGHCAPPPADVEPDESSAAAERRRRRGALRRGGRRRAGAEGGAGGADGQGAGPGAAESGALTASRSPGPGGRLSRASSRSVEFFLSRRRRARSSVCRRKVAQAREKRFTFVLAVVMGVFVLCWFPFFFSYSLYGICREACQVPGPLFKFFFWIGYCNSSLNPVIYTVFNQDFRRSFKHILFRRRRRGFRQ
Procedure: as §1, §2, §3, §4

5HT-Transporter = target: T3, 5HT-Transporter (Homo sapiens, UniProt P31645); experiment: Binding experiment for the 5HT-transporter ([3H]paroxetine, human platelet membranes); settings: [3H]paroxetine 0.5 nM; for IC50: read-out: h-5HTT pIC50 (converted)
T3 construct: Human platelet membranes (Oceanix Biosciences Corporation, Hanover, Md., USA) were thawed; tissue Oceanix Biosciences Corporation, Hanover, Md., USA; host or cells: human platelet membranes
T3 sequence (P31645 whole entry): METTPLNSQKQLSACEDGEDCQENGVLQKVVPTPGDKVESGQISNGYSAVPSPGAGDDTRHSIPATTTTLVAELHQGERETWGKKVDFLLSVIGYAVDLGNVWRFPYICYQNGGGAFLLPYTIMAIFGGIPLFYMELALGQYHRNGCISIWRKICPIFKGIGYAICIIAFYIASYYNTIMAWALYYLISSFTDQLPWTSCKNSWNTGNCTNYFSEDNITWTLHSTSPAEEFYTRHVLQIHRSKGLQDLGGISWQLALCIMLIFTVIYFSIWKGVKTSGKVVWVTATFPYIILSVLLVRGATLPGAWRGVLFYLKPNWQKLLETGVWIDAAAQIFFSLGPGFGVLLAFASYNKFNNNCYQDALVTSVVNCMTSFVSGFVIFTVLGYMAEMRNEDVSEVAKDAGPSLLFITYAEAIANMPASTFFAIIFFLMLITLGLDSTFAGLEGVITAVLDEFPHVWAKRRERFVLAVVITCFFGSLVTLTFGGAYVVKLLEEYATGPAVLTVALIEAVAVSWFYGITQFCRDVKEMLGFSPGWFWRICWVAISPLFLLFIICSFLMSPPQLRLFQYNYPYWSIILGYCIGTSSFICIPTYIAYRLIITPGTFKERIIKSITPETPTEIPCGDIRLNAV
Procedure: as §1
Human platelet membranes (Oceanix Biosciences Corporation, Hanover, Md., USA) were thawed, diluted in buffer (Tris-HCl 50 mM, 120 mM NaCl and 5 mM KCl) and quickly (max 3 s) homogenised with an Ultraturrax homogenizer. […] Incubation was stopped by rapid filtration of the incubation mixture over GF/B filters, pre-wetted with 0.1% polyethyleneamine, using a Filtermate196 harvester (Packard, Meriden, Conn.). Filters were rinsed extensively with ice-cold buffer and radioactivity on the filters was counted in a Topcount liquid scintillation counter (Packard, Meriden, Conn.). Data were expressed as cpm. Imipramine (at 1 μM final concentration) was used to determine the non-specific binding.
as §4

| SMILES | IC50 (hα2A receptor) | IC50 (hα2C receptor) | IC50 (5HT-Transporter) | h-α2A pIC50 (hα2A receptor) | h-α2C pIC50 (hα2C receptor) | h-5HTT pIC50 (5HT-Transporter) |
| --- | --- | --- | --- | --- | --- | --- |
| C/C(=C\c1ccccc1)CN1CCC(Nc2nccn(CC(=O)N(Cc3ccccc3)c3ccccc3)c2=O)CC1 [1-69] | 158 nM | 39.8 nM | 794 nM |  |  |  |
| C/C(=C\c1ccccc1)CN1CCC(Nc2nccn(-c3cccc(N(Cc4ccccc4)c4ccccc4)c3)c2=O)CC1 [1-70] | 31.6 nM | 20 nM | 158 nM |  |  |  |
| C/C(=C\c1ccccc1)CN1CCC(Nc2nccn(CCCN(Cc3ccccc3)Cc3ccccc3)c2=O)CC1 [1-71] | 100 nM | 5.01 nM | 398 nM |  |  |  |
| C/C(=C\c1ccccc1)CN1CCC(Nc2nccn(CCCNC(=O)c3ccccc3)c2=O)CC1 [1-72] | 126 nM | 3.16 nM | 1580 nM |  |  |  |
| C/C(=C\c1ccccc1)CN1CCC(Nc2nccn(Cc3ccc(CNC(=O)c4ccccc4)cc3)c2=O)CC1 [1-73] | 158 nM | 31.6 nM | 316 nM |  |  |  |
| C/C(=C\c1ccccc1)CN1CCC(Nc2nccn(CCCN(C)C(=O)c3ccccc3)c2=O)CC1 [1-74] | 251 nM | 10 nM | 3160 nM |  |  |  |
| C/C(=C\c1ccccc1)CN1CCC(Nc2nccn(Cc3ccc(CNC(=O)c4ccc(C#N)cc4)cc3)c2=O)CC1 [1-75] | 126 nM | 50.1 nM | 200 nM |  |  |  |
| C/C(=C\c1ccccc1)CN1CCC(Nc2nccn(-c3cccc(NC(=O)c4cccc(F)c4)c3)c2=O)CC1 [1-76] | 20 nM | 31.6 nM | 126 nM |  |  |  |
| C/C(=C\c1ccccc1)CN1CCC(Nc2nccn(-c3ccc(NC(=O)c4cccc(F)c4)cc3)c2=O)CC1 [1-77] | 126 nM | 15.8 nM | 251 nM |  |  |  |
| C/C(=C\c1ccccc1)CN1CCC(Nc2nccn(-c3ccc(CNC(=O)c4ccc(F)cc4)cc3)c2=O)CC1 [1-78] |  |  |  | 6.7 | 8.3 | 7.1 |
| C/C(=C\c1ccccc1)CN1CCC(Nc2nccn(CCCN(C)C(=O)c3ccc(F)cc3)c2=O)CC1 [1-79] | 2000 nM | 39.8 nM | > 10000 nM |  |  |  |
| C/C(=C\c1ccccc1)CN1CCC(Nc2nccn(-c3ccc(NC(=O)Cc4ccccc4)cc3)c2=O)CC1 [1-81] | 200 nM | 25.1 nM | 200 nM |  |  |  |
| C/C(=C\c1ccccc1)CN1CCC(Nc2nccn(Cc3ccc(CNC(=O)Cc4ccccc4)cc3)c2=O)CC1 [1-82] | 79.4 nM | 25.1 nM | 251 nM |  |  |  |
| C/C(=C\c1ccccc1)CN1CCC(Nc2nccn(CCCN(C)CC(=O)c3ccccc3)c2=O)CC1 [1-84] | 100 nM | 10 nM | 1260 nM |  |  |  |
| CCCC(=O)N(CCCn1ccnc(NC2CCN(C/C(C)=C/c3ccccc3)CC2)c1=O)Cc1ccccc1 [1-85] | 158 nM | 10 nM | 1260 nM |  |  |  |
| C/C(=C\c1ccccc1)CN1CCC(Nc2nccn(CCCN(Cc3ccccc3)C(=O)CC3CCCC3)c2=O)CC1 [1-86] | 158 nM | 15.8 nM | 1000 nM |  |  |  |

From patent publication US20090111801A1, “SUBSTITUTED PYRAZINONE DERIVATIVES FOR USE AS A MEDICINE” (Janssen Pharmaceutica N.V., priority 2006, published 2009)
